{"source": "patent US20250177576A1", "about": "“COMPOUNDS FOR THE MEASUREMENT OF THE OXYGEN CONCENTRATION” (Center for Neuromusculoskeletal Restorative Medicine Limited, priority 2022, published 2025)", "assay_type_in_all_cases": "physicochemical", "key": {"[1]": {"assay": "Oxygen quenching calibration (Stern-Volmer) in tetrahydrofuran", "details": "10 μM in tetrahydrofuran", "experimental": "The photoluminescence spectra of the Pt(ttiq)(acac) (10 μM) in tetrahydrofuran in different oxygen concentrations upon 500 nm photoexcitation is presented in FIG. 2A. The phosphorescence peak intensity (698 nm) increases while the oxygen level of the solution decreases, whereas the fluorescence (528 nm) remains independent of the oxygen level. The oxygen quenching of the phosphorescence may be interpreted using Stern-Volmer relationship, in which (I0/I=1+KSV·[O2]) where I: phosphorescence intensity; I0: phosphorescence intensity at 0% of oxygen; KSV: quencher coefficient; [O2]: oxygen concentration. The data of FIG. 2A are fitted with this relationship in FIG. 2B and thus the I0 could be estimated from the equation of (y=133.75801/(1+0.0371−x); adjusted R^2=0.98066). Therefore, a linear correlation of I0/I against [O2](y=1.10962+0.03545 x; adjusted R^2=0.99036) could be established as in FIG. 2C. Mathematically, the Stern-Volmer relationship could be further derived to (R0/R=1+KSV·[O2]) whereas the fluorescence peak intensity is a constant, and thus the R0 could be estimated from the equation of (y=2.04177/(1+0.03267−x); adjusted R^2=0.97785) in FIG. 2D. Similarly, a linear correlation of R0/R against [O2](y=1.07595+0.03165−x; adjusted R^2=0.98135) could be established as in FIG. 2E. In short, the linear correlation between the ratiometric photoluminescence signal and oxygen concentration (%) obtained from FIG. 2E may be utilized to analyze the oxygen content of a tetrahydrofuran sample without the concerns of concentration dependency and absolute intensity value.\nThe oxygen concentration (%) or partial pressure of solution samples were varied by O2/N2 gas-purging with a syringe needle and natural ventilation (or gradually adding sodium sulfite (Na2SO3) solution as an oxygen consuming chemical reagent). The instantaneous oxygen concentration (%) of aqueous samples (or oxygen partial pressure values of tetrahydrofuran solutions) at 293 K were measured using pre-calibrated FireSting®-GO2 oxygen meter (PyroScience) coupled with a TDIP15 temperature probe (PyroScience) and a fiber optic sensor (OXR430-OI, or OXSOLV for organic solvent measurement) (PyroScience). The photoluminescence signals of the nano-sensor solution at different oxygen concentrations (%) (or partial pressures) were then measured by the fluorescence spectrophotometer and confocal laser scanning microscope. The calibration curves were established using the signal intensity at 528 nm and 698 nm from the PL spectra, and integrated signals' intensity from customized green channel (507-609 nm) and red channel (657-740 nm) from the CLSM images."}, "[2]": {"assay": "Photoluminescence spectra in dichloromethane, oxygen-free vs ambient", "details": "10 μM in dichloromethane, excitation 500 nm", "experimental": "(§1) Proton and carbon NMR spectra were measured in CDCl3 on a Bruker AVANCE III 400 MHz NMR Spectrometer and tetramethylsilane (TMS) was exploited as an internal standard for calibrating the chemical shift. Electrospray Ionization Quadrupole-Time-of-Flight (ESI-Q-TOF) mass spectrometry was performed on an Agilent 6540 Liquid chromatography—ESI-Q-TOF Mass Spectrometer. UV/Vis absorption spectroscopy was performed on a Molecular Devices SpectraMax M2e in different solutions at 293 K. Fluorescence emission spectra were taken from a LS-55 fluorescence spectrophotometer (PerkinElmer) at 293 K."}, "[3]": {"assay": "PL spectra in water/tetrahydrofuran binary mixtures (aggregation, AIE/ACQ)", "experimental": "as §1\nIn view of the co-planar chemical structure of Pt(ttiq)(acac), it was interesting to look for any aggregation induced emission (AIE) or aggregation caused quenching (ACQ) property. […] When the water fraction further increased to or above 80%, the mixture formed clearly observable precipitates in the cuvette.\nIn order to observe whether these nanoaggregates were still readily quenched by oxygen, the PL spectra of the nanoaggregates' solution with a fwater of 60% was compared before and after the deaeration."}}, "data": [{"smiles": "CC(=O)C=C(C)[O][Pt][c]1c(-c2nccc3ccccc23)sc2ccsc12", "note": "[Pt(ttiq)(acac)]", "values": [{"measurement": "quencher coefficient KSV from fit of PL intensity ratio (FIG. 2D)", "setting": "[1]", "value": 0.03267}, {"measurement": "slope of linear correlation I0/I against [O2] (FIG. 2C)", "setting": "[1]", "value": 0.03545}, {"measurement": "slope of linear correlation R0/R against [O2] (FIG. 2E calibration curve)", "setting": "[1]", "value": 0.03165}, {"measurement": "fluorescence peak wavelength", "setting": "[1]; excitation 500 nm", "value": 528, "unit": "nm"}, {"measurement": "phosphorescence peak wavelength", "setting": "[1]; excitation 500 nm", "value": 698, "unit": "nm"}, {"measurement": "quencher coefficient KSV from fit of phosphorescence intensity (FIG. 2B)", "setting": "[1]; vs oxygen partial pressure", "value": 0.0371}, {"measurement": "constant PL peak (fluorescence) wavelength", "setting": "[2]; disregarding oxygen content", "value": 528, "unit": "nm"}, {"measurement": "maximum phosphorescence intensity wavelength", "setting": "[2]; oxygen-sensitive peak", "value": 698, "unit": "nm"}, {"measurement": "oxygen response of nanoaggregates", "setting": "[3]; fwater 60%, before and after deaeration", "value": "still very responsive to the oxygen content"}, {"measurement": "aggregation induced emission property", "setting": "[3]; water fraction 0 to 70% in tetrahydrofuran, 10 μM, ambient, excitation 500 nm", "value": "AIE-active species in the region of 650-750 nm"}, {"measurement": "water fraction at which clearly observable precipitates form", "setting": "[3]; water/tetrahydrofuran mixture, 10 μM", "value": "≥ 80", "unit": "%"}]}]}
